Consider two compounds from paper PMC9838834, “Improvement of Antialveolar echinococcosis efficacy of novel Albendazole-Bile acids Derivatives with Enhanced Oral Bioavailability” (PLOS Neglected Tropical Diseases, 2023).

Data set [1] deals with protoscolex (PSCs). As to the kind of experiment: Detection of protoscolex mortality / survival rate in vitro (trypan blue). To be noted: 7 days; ABZ 10 μg/mL, ABZ-SO 10 μg/mL, ABZ-BA 13.45, 26.9, 53.8 μg/mL; liver homogenate + 0.2% DMSO; n = 3. It is filed as cell-based, E. multilocularis. An excerpt:
(§1) Protoscoleces (PSCs) from E. multilocularis were collected aseptically from alveolar echinococcosis obtained from the abdominal cavity of gerbils in Qinghai Research Key Laboratory for Echinococcosis, China. The specific operation steps were as follows: (1) dissect the successfully preserved Echinococcus protoscoleces gerbil model, isolate cysts and wash the residual liver tissue and blood with sterile Penicillin-Streptomycin solution (penicillin (1500 U/ mL) + streptomycin (1000 U/ mL)). (2) Place the clean cysts in sterile glassware, cut them into a slurry, filter the original head section with sterile gauze, and rinse them with Penicillin-Streptomycin solution 3 times. (3) Slightly rotate and shake the filtrate, absorb the suspended connective tissue, impurities, inactivated PSCs, and excess Penicillin-Streptomycin solution in the upper layer, repeat several times and finally concentrate the pure PSCs into the test tube. Viability was assessed by muscular movement (evaluated under an optical microscope), the motility of flame cells, and the exclusion test with methylene blue. The PSCs were incubated in an RPMI 1640 medium containing 0.20 mg/mL liver homogenous serous, 100 U/mL penicillin, 100 μg/mL streptomycin and 10% calf serum at 37°C in a 5% CO2 atmosphere at a concentration of (1000–2000) PSCs/mL.
(§2) The PSCs were divided into blank control groups (Groups 1 and 2), positive control groups (Groups 3 and 4), and experimental groups (Groups 5 to 7). Group 1 was RPMI-1640 medium with 0.20 mg/mL liver homogenate; Group 2 was 0.2% DMSO medium with 0.2% DMSO; Group 3 was RPMI-1640 medium with 0.20 mg/mL liver homogenate and 0.2% DMSO, containing 10 μg/mL Albendazole; Group 4 was RPMI-1640 medium with 0.20 mg/mL liver homogenate and 0.2% DMSO, containing 10 μg/mL albendazole sulfoxide; Groups 5–7 were RPMI-1640 medium with 0.20 mg/mL liver homogenate and 0.2% DMSO, containing 13.45, 26.9 and 53.8 μg/mL ABZ-BA, with effective ABZ concentrations of 5, 10 and 20 μg/mL, respectively. The culture medium and drug were changed every 3 days for one week. PSCs samples (10 μL) were collected every day and stained with 0.4% trypan blue staining solution, observed under an inverted microscope, and photographed to record PSC mortality.

In data set [2] the test system is protoscolex (PSCs). As to the kind of experiment: Protoscolex microstructure by optical microscope and SEM. It is filed as cell-based, E. multilocularis. To be noted: 5 days after treatment, 10 μg/mL.
Source text: as §1, §2
For ultrastructural studies, 200 μL PSCs were taken from each group 5 days after treatment and fixed with 4% glutaraldehyde in sodium cacodylate buffer at 4°C for 72 hours. Samples were dehydrated by continuous incubation in increasing concentrations of ethanol (50–100%), and ethanol was removed by supercritical extraction. They were then sputter-coated with gold (100 Å thick) and examined on an FEI Quanta 200 scanning electron microscope operating at 20 kV.

Data set [3] can be described thus: Systemic pharmacokinetics in SD rats (UHPLC-MS). It is filed as in vivo, Sprague-Dawley (SD) rats. To be noted: SD rats, oral 25 mg/kg. The protocol:
A Dionex Ultimate 3000 RSLC system (Thermofisher) combined with an Accucore aQ C18 column (150 mm×2.1 mm, 2.6 μm, Thermo fisher) was used in the sample separation process. The separation speed was set at […] for all gradients. 1 μL of injection volume and a constant temperature of (25 ± 1°C were set for the column. The eluents were A, water with 0.1% formic acid (v/v) and B, methanol; the gradient program was as follows: 0–6 min, 8–40% B; 6–8 min, 40–100% B; 8–10 min, 100% B; 10–11 min, 100–8% B; 11–13 min, 8% B.
Heated electro-spray ionization (HE-SI) was paired with a Q-Orbitrap MS in the MS analysis. The flow rate of auxiliary, sheath and sweep gas was set at 35, 10, and 1 (arbitrary unit), respectively. A full MS-ddMS^2 mode was used to perform the analysis. The damping gas in the C-trap and nitrogen was used to stabilize the spraying. Temperatures of 350°C and 320°C were set and kept for the auxiliary gas heater and capillary. Under negative mode, 3.0 kV was adopted for the spray voltage, 60 V was used for the S-lens RF level, 50 ms was used for the maximum injection time, and 3.0 ^e6 was set as the automatic gain control target. Full MS-ddMS^2 scan ranged from 150.0000 to 800.0000 m/z. Precise molecular weight […] was used for qualitative analysis, the corresponding peak area was used for quantitative analysis, and MS^2 fragments were used for further qualitative analysis.
A cross-over design was employed with male SD rats (n = 7) to evaluate in vivo pharmacokinetics. The rats were subjected to fasting for one night before each administration and were fed 4 hours after administration. ABZ was administered by gavage (25 mg/kg). Blood was collected under isoflurane anesthesia at a flow rate of 2.0 mL/min. At 0.25, 0.5, 1, 2, 2.5, 3, 4, 6, 8, 12, and 24 hours after administration, 200–500 μL blood was collected from the orbital venous plexus and centrifuged at 13000 rpm for 5 min. The upper plasma was stored at—80°C for testing.
Plasma samples were thawed at room temperature, and 100 μL was added to an equal volume of mass spectrometry grade methanol, vortexed for 1 min, and centrifuged again at 13000 rpm for 5 min. 100 μL of the supernatant were added to 100 μL of 200 ng/mL mebendazole IS solution, vortexed for 1 min, and centrifuged again at 13000 rpm for 5 min. The resulting sample was injected by UHPLC-HR-ESI-MS with an injection volume of 1 μL. The pharmacokinetic study of SD rats was performed according to the standards recommended by the "Guidelines for the Care and Use of Laboratory Animals" (Animal Laboratory Resources Institute, 1995) and was approved by the Institutional Animal Care and Use Committee of Qinghai University.

As to `CCC[S+]([O-])c1ccc2[nH]c(NC(=O)OC)nc2c1` (stereo not shown) [ABZ-SO, albendazole sulfoxide], in data set [1], the “inhibitory effect on PSC survival rate” value was “time and concentration-dependent inhibitory effects”. In data set [2], the “PSC morphology under the SEM” value is “elongated and curled up”; the “PSC morphology under the optical microscope (OM)” value was “became vacuolar and transparent”. The “mortality of PSCs” value in data set [2] (vs blank groups) is on record as “significantly higher than in the blank groups”.

On to `CCCSc1ccc2[nH]c(NC(=O)OC)nc2c1` [Abz], for which, in data set [3], the “detection in plasma 24 hours after administration” value is on record as “still detected” and the “shape of the drug time curve” value is “double-peak”. For the same compound, the “Frel (relative bioavailability) = AUCAbz(0–24)/AUCABZ (0–24)” value in data set [3] (n = 7) worked out at 2613%.
